Data set [1] has as its target T1, P-selectin (Homo sapiens, UniProt P16109).
T1 construct: P-selectin is isolated from human platelet lysates; from tissue; host or cells: human platelets (outdated platelet packs from a blood bank)
T1 sequence (P16109 42-830): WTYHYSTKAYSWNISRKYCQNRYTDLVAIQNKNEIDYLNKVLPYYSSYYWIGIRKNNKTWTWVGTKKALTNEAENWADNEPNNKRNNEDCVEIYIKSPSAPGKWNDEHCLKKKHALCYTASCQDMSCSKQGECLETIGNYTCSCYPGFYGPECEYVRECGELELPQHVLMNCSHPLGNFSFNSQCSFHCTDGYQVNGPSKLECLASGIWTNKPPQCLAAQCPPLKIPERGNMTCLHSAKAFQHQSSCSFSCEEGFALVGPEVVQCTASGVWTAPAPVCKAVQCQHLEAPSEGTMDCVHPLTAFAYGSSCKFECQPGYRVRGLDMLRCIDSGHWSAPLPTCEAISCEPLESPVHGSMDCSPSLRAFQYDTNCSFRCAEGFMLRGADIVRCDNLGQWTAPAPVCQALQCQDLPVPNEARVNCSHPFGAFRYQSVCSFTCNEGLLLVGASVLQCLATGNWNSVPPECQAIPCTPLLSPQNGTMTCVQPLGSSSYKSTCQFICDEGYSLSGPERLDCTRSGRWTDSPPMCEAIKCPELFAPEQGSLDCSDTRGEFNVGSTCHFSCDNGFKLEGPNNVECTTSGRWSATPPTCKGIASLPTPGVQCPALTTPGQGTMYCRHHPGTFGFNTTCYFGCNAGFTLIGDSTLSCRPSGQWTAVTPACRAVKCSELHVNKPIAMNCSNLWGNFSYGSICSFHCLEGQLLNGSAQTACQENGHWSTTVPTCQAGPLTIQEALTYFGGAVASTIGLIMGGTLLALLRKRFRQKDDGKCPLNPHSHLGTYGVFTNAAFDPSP
Nature of the data set: Inhibition of human neutrophil adhesion to purified P-selectin immobilized on plastic wells. The note with it: inhibiting the binding of human neutrophils to P-selectin. The data set is classed as cell-based. The method in brief:
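Isolated human neutrophils (2×10^5 per well) in HBSS with Ca2+/Mg2+ and HSA added to wells coated overnight at 4° C with platelet-derived P-selectin (5 micrograms/mL), HSA-blocked; 20 min at 22° C. Nonadherent cells removed by inverted centrifugation at 150 g; adherent cells quantified by myeloperoxidase activity.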

For data set [2] the following is noted: disulfide bond, water.

The structures appear in SMILES notation. pIC50: −log10 of the molar value. Read-outs that look alike come from different tables or passages of the source. Where a SMILES comes first, the peptide text is derived from it. Bridges are numbered along the chain shown (N, C = ends). [ ]: non-standard residue; d: D form. The star is where a group is joined. NHBu = CCCCN*

Broadly, the pIC50 is −log10 of the IC50, conventionally taken in molar units. A high value points to a small IC50. In the case of `CC(C)[C@@H](NC(=O)[C@@H](CCCNC(=N)N)NC(=O)[C@H](NC(=O)[C@@H](Cc1c[nH]c2ccccc12)NC(=O)[C@H]1CSSC[C@@H](NC(=O)[C@@H](CCCCN)NC(=O)[C@H](N)CCCNC(=N)N)C(=O)NCC(=O)N[C@@H](Cc2ccccc2)C(=O)N1)[C@H](C)O)C(N)=O` [(90)] (H-[dR][dK][dC]GF[dC][dW][dT][dR][dV]-NH2; disulfide 3-6), the pIC50 in data set [1] is 5.00. This molecule displayed a ring closure, yield of all isomers in data set [2] (from CC(C)[C@@H](NC(=O)[C@@H](CCCNC(=N)N)NC(=O)[C@H](NC(=O)[C@@H](Cc1c[nH]c2ccccc12)NC(=O)[C@@H](CS)NC(=O)[C@H](Cc1ccccc1)NC(=O)CNC(=O)[C@@H](CS)NC(=O)[C@@H](CCCCN)NC(=O)[C@H](N)CCCNC(=N)N)[C@H](C)O)C(N)=O, DMSO, 0.747 mM, 16.0 h) of 18.5%.

`CC(C)[C@@H](NC(=O)[C@@H](Cc1c[nH]c2ccccc12)NC(=O)[C@H](NC(=O)[C@@H](Cc1c[nH]c2ccccc12)NC(=O)[C@H]1CSSC[C@@H](NC(=O)[C@@H](CCCCN)NC(=O)[C@H](N)CCCNC(=N)N)C(=O)NCC(=O)N[C@@H](Cc2ccccc2)C(=O)N1)C(C)C)C(=O)O` [(103)] (H-[dR][dK][dC]GF[dC][dW][dV][dW][dV]-OH; disulfide 3-6) gave a pIC50 in data set [1] of 4.37. In data set [2] (from CC(C)[C@@H](NC(=O)[C@@H](Cc1c[nH]c2ccccc12)NC(=O)[C@H](NC(=O)[C@@H](Cc1c[nH]c2ccccc12)NC(=O)[C@@H](CS)NC(=O)[C@H](Cc1ccccc1)NC(=O)CNC(=O)[C@@H](CS)NC(=O)[C@@H](CCCCN)NC(=O)[C@H](N)CCCNC(=N)N)C(C)C)C(=O)O, air, Cu wire, ammonium acetate, 0.605 mM, 22.0 h), this molecule displayed a ring closure, yield of all isomers of 2.7%.

`CC[C@@H](C)[C@H]1NC(=O)CNC(=O)[C@H](NC(=O)[C@@H](CCCCN)NC(=O)[C@H](N)CCCNC(=N)N)CSSC[C@H](C(=O)N[C@H](Cc2c[nH]c3ccccc23)C(=O)N[C@@H](C(=O)N[C@H](Cc2c[nH]c3ccccc23)C(=O)N[C@@H](C(N)=O)C(C)C)[C@H](C)O)NC1=O` [(52)] (H-[dR][dK][dC]G[dI][dC][dW][dT][dW][dV]-NH2; disulfide 3-6) gave a negative logarithm of the IC50 (pIC50) in data set [1] of 4.99. In data set [2] (from CC[C@@H](C)[C@@H](NC(=O)CNC(=O)[C@@H](CS)NC(=O)[C@@H](CCCCN)NC(=O)[C@H](N)CCCNC(=N)N)C(=O)N[C@H](CS)C(=O)N[C@H](Cc1c[nH]c2ccccc12)C(=O)N[C@@H](C(=O)N[C@H](Cc1c[nH]c2ccccc12)C(=O)N[C@@H](C(N)=O)C(C)C)[C@H](C)O, DMSO, 0.341 mM, 25.0 °C, 72.0 h), this molecule gave a ring closure, yield of all isomers of 16.6%.

In turn, `CC[C@H](C)[C@H](NC(=O)[C@H](CCCCN)NC(=O)[C@@H](N)CCCNC(=N)N)C(=O)NCC(=O)NCC(=O)N[C@H]1CSSC[C@@H](C(N)=O)NC(=O)[C@H](Cc2c[nH]c3ccccc23)NC(=O)[C@H]([C@@H](C)O)NC(=O)[C@H](Cc2c[nH]c3ccccc23)NC1=O` [(33)] (H-RKIGGCWTWC-NH2; disulfide 6-10) gave a pIC50 in data set [1] of 3.33. In addition, the ring closure, yield of all isomers in data set [2] (from CC[C@H](C)[C@H](NC(=O)[C@H](CCCCN)NC(=O)[C@@H](N)CCCNC(=N)N)C(=O)NCC(=O)NCC(=O)N[C@@H](CS)C(=O)N[C@@H](Cc1c[nH]c2ccccc12)C(=O)N[C@H](C(=O)N[C@@H](Cc1c[nH]c2ccccc12)C(=O)N[C@@H](CS)C(N)=O)[C@@H](C)O, DMSO, 0.7 mM, 25.0 °C, 16.0 h) came to 5.3%.

In turn, `CCCCNC(=O)[C@H](CCC(N)=O)NC(=O)[C@@H](Cc1c[nH]c2ccccc12)NC(=O)[C@H](NC(=O)[C@@H](Cc1c[nH]c2ccccc12)NC(=O)[C@H]1CSSC[C@@H](NC(=O)[C@@H](CCCCN)NC(=O)[C@H](N)CCCNC(=N)N)C(=O)NCC(=O)N[C@@H](Cc2ccccc2)C(=O)N1)[C@H](C)O` [(102)] (H-[dR][dK][dC]GF[dC][dW][dT][dW]Q-NHBu; disulfide 3-6) showed a pIC50 in data set [1] of 5.10. This molecule also came in with a ring closure, yield of all isomers in data set [2] (from CCCCNC(=O)[C@H](CCC(N)=O)NC(=O)[C@@H](Cc1c[nH]c2ccccc12)NC(=O)[C@H](NC(=O)[C@@H](Cc1c[nH]c2ccccc12)NC(=O)[C@@H](CS)NC(=O)[C@H](Cc1ccccc1)NC(=O)CNC(=O)[C@@H](CS)NC(=O)[C@@H](CCCCN)NC(=O)[C@H](N)CCCNC(=N)N)[C@H](C)O, DMSO, 0.681 mM) of 21.5%.

`CC(C)[C@@H](NC(=O)[C@@H](Cc1c[nH]c2ccccc12)NC(=O)[C@H](NC(=O)[C@@H](Cc1c[nH]c2ccccc12)NC(=O)[C@H]1CSSC[C@@H](NC(=O)[C@@H](CCCCN)NC(=O)[C@H](N)CCCNC(=N)N)C(=O)N[C@H](C)C(=O)N[C@@H](Cc2ccccc2)C(=O)N1)[C@H](C)O)C(N)=O` [(11)] (H-[dR][dK][dC][dA]F[dC][dW][dT][dW][dV]-NH2; disulfide 3-6): in data set [1], the negative-log IC50 (pIC50) is 5.15. Moreover, in data set [2] (from CC(C)[C@@H](NC(=O)[C@@H](Cc1c[nH]c2ccccc12)NC(=O)[C@H](NC(=O)[C@@H](Cc1c[nH]c2ccccc12)NC(=O)[C@@H](CS)NC(=O)[C@H](Cc1ccccc1)NC(=O)[C@@H](C)NC(=O)[C@@H](CS)NC(=O)[C@@H](CCCCN)NC(=O)[C@H](N)CCCNC(=N)N)[C@H](C)O)C(N)=O, air, Cu wire, dilute AcOH/NH4OH pH 8.5, 3.08 mM), the ring closure, yield of all isomers came out at 2.4%.

For the molecule `CC[C@@H](C)[C@H]1NC(=O)[C@H](NC(=O)[C@H](N)CCCNC(=N)N)CSSC[C@H](C(=O)N[C@@H](C(=O)N[C@H](Cc2c[nH]c3ccccc23)C(=O)N[C@@H](C(=O)N[C@H](Cc2c[nH]c3ccccc23)C(=O)N[C@@H](C(N)=O)C(C)C)[C@H](C)O)[C@H](C)CC)NC(=O)CNC1=O` [(4)] (H-[dR][dC][dI]G[dC][dI][dW][dT][dW][dV]-NH2; disulfide 2-5), the negative logarithm of the IC50 (pIC50) in data set [1] was 4.39. The molecule also had a ring closure, yield of all isomers in data set [2] (from CC[C@@H](C)[C@@H](NC(=O)[C@@H](CS)NC(=O)[C@H](N)CCCNC(=N)N)C(=O)NCC(=O)N[C@H](CS)C(=O)N[C@@H](C(=O)N[C@H](Cc1c[nH]c2ccccc12)C(=O)N[C@@H](C(=O)N[C@H](Cc1c[nH]c2ccccc12)C(=O)N[C@@H](C(N)=O)C(C)C)[C@H](C)O)[C@H](C)CC, DMSO, 0.405 mM, 16.0 h) of 43.1%.

With `CC(C)[C@@H](NC(=O)[C@@H](Cc1c[nH]c2ccccc12)NC(=O)[C@H](NC(=O)[C@@H](Cc1c[nH]c2ccccc12)NC(=O)[C@H]1CSSC[C@@H](NC(=O)[C@@H](CCCCN)NC(=O)[C@H](N)CCCNC(=N)N)C(=O)N2CCC[C@@H]2C(=O)N[C@@H](Cc2ccccc2)C(=O)N1)[C@H](C)O)C(N)=O` [(57)] (H-[dR][dK][dC][dP]F[dC][dW][dT][dW][dV]-NH2; disulfide 3-6), in data set [1], the pIC50 was 4.15. The ring closure, yield of all isomers in data set [2] (from CC(C)[C@@H](NC(=O)[C@@H](Cc1c[nH]c2ccccc12)NC(=O)[C@H](NC(=O)[C@@H](Cc1c[nH]c2ccccc12)NC(=O)[C@@H](CS)NC(=O)[C@H](Cc1ccccc1)NC(=O)[C@H]1CCCN1C(=O)[C@@H](CS)NC(=O)[C@@H](CCCCN)NC(=O)[C@H](N)CCCNC(=N)N)[C@H](C)O)C(N)=O, air, Cu wire, NH4OH, 0.42 mM, 25.0 °C, 6.0 h) amounted to 8.7%.

The molecule `CC(C)[C@@H](NC(=O)[C@@H](Cc1c[nH]c2ccccc12)NC(=O)[C@H](NC(=O)[C@@H](Cc1c[nH]c2ccccc12)NC(=O)[C@H]1CSSC[C@@H](NC(=O)[C@@H](CCCCN)NC(=O)[C@H](N)CCCNC(=N)N)C(=O)NCC(=O)N[C@@H](CC(N)=O)C(=O)N1)[C@H](C)O)C(N)=O` [(41)] (H-[dR][dK][dC]GN[dC][dW][dT][dW][dV]-NH2; disulfide 3-6) showed a pIC50 in data set [1] of 4.58. This molecule also returned a ring closure, yield of all isomers in data set [2] (from CC(C)[C@@H](NC(=O)[C@@H](Cc1c[nH]c2ccccc12)NC(=O)[C@H](NC(=O)[C@@H](Cc1c[nH]c2ccccc12)NC(=O)[C@@H](CS)NC(=O)[C@H](CC(N)=O)NC(=O)CNC(=O)[C@@H](CS)NC(=O)[C@@H](CCCCN)NC(=O)[C@H](N)CCCNC(=N)N)[C@H](C)O)C(N)=O, Cu wire, dilute NH4OH (printed NH2OH), pH 8, 3.2 mM, 20.0 h) of 6%.

As for `CC[C@H](C)[C@@H]1NC(=O)CNC(=O)[C@H](NC(=O)[C@@H](CCCCN)NC(=O)[C@H](N)CCCNC(=N)N)CSSC[C@H](C(=O)N[C@H](Cc2c[nH]c3ccccc23)C(=O)N[C@@H](C(=O)N[C@H](Cc2c[nH]c3ccccc23)C(=O)N[C@@H](C(N)=O)C(C)C)[C@H](C)O)NC1=O` [(68)] (H-[dR][dK][dC]GI[dC][dW][dT][dW][dV]-NH2; disulfide 3-6), the pIC50 in data set [1] is 5.43. In data set [2] (from CC[C@H](C)[C@H](NC(=O)CNC(=O)[C@@H](CS)NC(=O)[C@@H](CCCCN)NC(=O)[C@H](N)CCCNC(=N)N)C(=O)N[C@H](CS)C(=O)N[C@H](Cc1c[nH]c2ccccc12)C(=O)N[C@@H](C(=O)N[C@H](Cc1c[nH]c2ccccc12)C(=O)N[C@@H](C(N)=O)C(C)C)[C@H](C)O, Cu wire, NH4OH, 3.2 mM, 20.0 h), this molecule had a ring closure, yield of all isomers of 2.8%.

The values are drawn from patent publication US5753617A, “Peptide inhibitors of cellular adhesion” (Centocor, Inc., priority 1995, dated 1998).
